Source: patent publication US12338237B2, “Derivatives having 1,2,3,4-tetrahydronaphthalene moiety or pharmaceutically acceptable salt thereof and pharmaceutical compositions comprising the same” (YUHAN CORPORATION, priority 2019, dated 2025)

Experiments:
[1] = target: glucosylceramide synthase (GCS) (Homo sapiens (Human), UniProt Q16739); test: Evaluation of inhibitory activities against GCS (enzyme reaction with A549 cell lysate, NBD C6-ceramide, HPLC fluorescence); assay type: biochemical; conditions: GCS activity in A549 cell lysate, 37° C. for 90 minutes
Method in brief: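 Lysate of A549 cells in 50 mM HEPES pH 7.3 incubated with test compound and NBD C6-ceramide at 37 °C for 90 min; lipids extracted with chloroform/methanol and GlcCer and ceramide peaks quantified by HPLC fluorescence. Activity from GlcCer area fraction, normalised between DMSO and ibiglustat controls.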

GM1 production = test: cells; assay type: cell-based; conditions: Homo sapiens, Jurkat, 72 h

glucosylceramide synthase (GCS), sequence (Q16739 whole entry, looked up): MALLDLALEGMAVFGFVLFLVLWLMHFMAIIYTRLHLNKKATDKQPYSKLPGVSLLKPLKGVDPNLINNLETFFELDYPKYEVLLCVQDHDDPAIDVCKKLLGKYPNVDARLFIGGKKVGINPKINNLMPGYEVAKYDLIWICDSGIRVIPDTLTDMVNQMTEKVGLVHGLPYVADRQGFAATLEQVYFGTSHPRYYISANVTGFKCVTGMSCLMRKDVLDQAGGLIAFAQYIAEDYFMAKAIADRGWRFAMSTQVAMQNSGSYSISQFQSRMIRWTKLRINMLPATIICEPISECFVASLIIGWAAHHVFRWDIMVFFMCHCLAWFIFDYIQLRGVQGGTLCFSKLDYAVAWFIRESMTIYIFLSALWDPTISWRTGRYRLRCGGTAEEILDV

| Structure (SMILES) | IC50 [1] | IC50 (GM1 production) |
| --- | --- | --- |
| O=C(NC1c2ccc(-c3ccc(Cl)cc3)cc2CCC12CC2)O[C@@H]1CN2CCC1CC2 (stereo partly drawn) [Example 187, (S)-quinuclidin-3-yl (6′-(4-chlorophenyl)-3′,4′-dihydro-1′H-spiro[cyclopropane-1,2′-naphthalen]-1′-yl)carbamate] | 13.9 nM | 35.5 nM |
| COc1cc(OC)cc(-c2ccc3c(c2)CCC2(CC2)C3NC(=O)O[C@@H]2CN3CCC2CC3)c1 (stereo partly drawn) [Example 214, (S)-quinuclidin-3-yl (6′-(3,5-dimethoxyphenyl)-3′,4′-dihydro-1′H-spiro[cyclopropane-1,2′-naphthalen]-1′-yl)carbamate] | 32.6 nM | 62.3 nM |
| O=C(NC1c2cc(-c3cccc(OC(F)(F)F)c3)ccc2CCC12CC2)O[C@@H]1CN2CCC1CC2 (stereo partly drawn) [Example 178, (S)-quinuclidin-3-yl (7′-(3-(trifluoromethoxy)phenyl)-3′,4′-dihydro-1′H-spiro[cyclopropane-1,2′-naphthalen]-1′-yl)carbamate] | 22.7 nM | 274 nM |
| CCCCOc1ccc(-c2ccc3c(c2)CCC(C)(C)C3NC(=O)O[C@@H]2CN3CCC2CC3)cc1Cl (stereo partly drawn) [Example 143, (S)-quinuclidin-3-yl (6-(4-butoxy-3-chlorophenyl)-2,2-dimethyl-1,2,3,4-tetrahydronaphthalen-1-yl)carbamate] | 1.44 nM | 0.5 nM |
| CC(C)Oc1ccccc1-c1ccc2c(c1)C(NC(=O)O[C@@H]1CN3CCC1CC3)CCC2 (stereo partly drawn) [Example 78, (S)-quinuclidin-3-yl (7-(2-isopropoxyphenyl)-1,2,3,4-tetrahydronaphthalen-1-yl)carbamate] | 30.1 nM | 230 nM |
| O=C(NC1CCCc2cc(-c3cc(F)c(F)cc3F)ccc21)O[C@@H]1CN2CCC1CC2 (stereo partly drawn) [Example 21, (S)-quinuclidin-3-yl (6-(2,4,5-trifluorophenyl)-1,2,3,4-tetrahydronaphthalen-1-yl)carbamate] | 2.53 nM | 42.1 nM |
| O=C(NC1c2cc(-c3ccc(C(F)(F)F)cc3)ccc2CCC12CC2)O[C@@H]1CN2CCC1CC2 (stereo partly drawn) [Example 173, (S)-quinuclidin-3-yl (7′-(4-(trifluoromethyl)phenyl)-3′,4′-dihydro-1′H-spiro[cyclopropane-1,2′-naphthalen]-1′-yl)carbamate] | 1.61 nM | 18.9 nM |
| O=C(NC1CCCc2cc(-c3ccc(C(F)(F)F)cc3)ccc21)O[C@@H]1CN2CCC1CC2 (stereo partly drawn) [Example 3, (S)-quinuclidin-3-yl (6-(4-(trifluoromethyl)phenyl)-1,2,3,4-tetrahydronaphthalen-1-yl)carbamate] | 2.3 nM | 58.7 nM |
| O=C(NC1CCCc2ccc(-c3ccc(F)cc3F)cc21)O[C@@H]1CN2CCC1CC2 (stereo partly drawn) [Example 65, (S)-quinuclidin-3-yl (7-(2,4-difluorophenyl)-1,2,3,4-tetrahydronaphthalen-1-yl)carbamate] | 14.2 nM | 95.5 nM |
| COCOc1ccccc1-c1ccc2c(c1)CCC1(CC1)C2NC(=O)O[C@@H]1CN2CCC1CC2 (stereo partly drawn) [Example 199, (S)-quinuclidin-3-yl (6′-(2-(methoxymethoxy)phenyl)-3′,4′-dihydro-1′H-spiro[cyclopropane-1,2′-naphthalen]-1′-yl)carbamate] | 7.24 nM | 7.63 nM |
| COc1cc(OC)cc(-c2ccc3c(c2)CCC(C)(C)C3NC(=O)O[C@@H]2CN3CCC2CC3)c1 (stereo partly drawn) [Example 138, (S)-quinuclidin-3-yl (6-(3,5-dimethoxyphenyl)-2,2-dimethyl-1,2,3,4-tetrahydronaphthalen-1-yl)carbamate] | 1.19 nM | 3.8 nM |
| COc1cc(-c2ccc3c(c2)CCC(C)(C)C3NC(=O)O[C@@H]2CN3CCC2CC3)ccc1Cl (stereo partly drawn) [Example 124, (S)-quinuclidin-3-yl (6-(4-chloro-3-methoxyphenyl)-2,2-dimethyl-1,2,3,4-tetrahydronaphthalen-1-yl)carbamate] | 1.6 nM | 3.35 nM |
